# Source: publication PMC10141580, “Cyclic Dichalcogenides Extend the Reach of Bioreductive Prodrugs to Harness Thiol/Disulfide Oxidoreductases: Applications to seco-Duocarmycins Targeting the Thioredoxin System” (ACS Central Science, 2023)
# Several values for one entry are separate records, joined by “and”; a condition that tells them apart may be missing. Equal entries are not always repeated. Where two headings read alike, the source gives them in different places.
# Tested on: panel of 140 standard cancer cell lines
# Experiment: ProliFiler-140 cancer cell line screen (CellTiterGlo, 72 h)
# Assay type: cell-based
# Method: Incubations were performed for 72 h before automated viability readout with CellTiterGlo (Figure 8).
# End of Figure S11 (part 5 of 5): ProliFiler-140 cancer cell line screening for cytotoxicity of the prodrugs.
# 8-data-point dose response curves from CellTiter-Glo® viability readout.
# ProliFiler-140 cell line panel part V
smiles,measurement,setting,value
COc1cc2cc(C(=O)N3C[C@@H](CCl)c4c3cc(OC(=O)N(CCC(=O)N3CCN(C)CC3)C3CCCCC3)c3ccccc43)[nH]c2c(OC)c1OC [P-CC60-CBI-TMI],IC50,"786-O (Kidney), read-out: IC50 [M] (ProliFiler-140)",1.18e-07 M and 1.2e-07 M
same,IC50,"786-O, read-out: IC50",1.2e-07 M
same,IC50,"A172 (Brain), read-out: IC50 [M] (ProliFiler-140)",5.74e-07 M and 5.7e-07 M
same,IC50,"A375 (Skin), read-out: IC50 [M] (ProliFiler-140)",1.64e-07 M and 1.6e-07 M
same,IC50,"A427 (Lung), read-out: IC50 [M] (ProliFiler-140)",8.2e-07 M and 8.23e-07 M
same,IC50,"A431 (Skin), read-out: IC50 [M] (ProliFiler-140)",2.62e-07 M and 2.6e-07 M
same,IC50,"A498 (Kidney), read-out: IC50 [M] (ProliFiler-140)",3e-07 M
same,IC50,"A498, read-out: IC50",3e-07 M
same,IC50,"A549 (Lung), read-out: IC50 [M] (ProliFiler-140)",7.7e-07 M
same,IC50,"A549, read-out: IC50",7.7e-07 M
same,IC50,"A2058 (Skin), read-out: IC50 [M] (ProliFiler-140)",1e-07 M and 1.02e-07 M
same,IC50,"A2780 (Ovary), read-out: IC50 [M] (ProliFiler-140)",8.9e-08 M and 8.89e-08 M
same,IC50,"AsPC-1 (Pancreas), read-out: IC50 [M] (ProliFiler-140)",2.1e-06 M and 2.15e-06 M
same,IC50,"BEN (Lung), read-out: IC50 [M] (ProliFiler-140)",1.4e-06 M and 1.42e-06 M
same,IC50,"BT-20 (Breast), read-out: IC50 [M] (ProliFiler-140)",1.1e-06 M and 1.11e-06 M
same,IC50,"BxPC-3 (Pancreas), read-out: IC50 [M] (ProliFiler-140)",6.62e-07 M and 6.6e-07 M
same,IC50,"CAKI-1, read-out: IC50",3.3e-07 M
same,IC50,"COR-L279 (Lung), read-out: IC50 [M] (ProliFiler-140)",7.4e-08 M and 7.36e-08 M
same,IC50,"COV434 (Ovary), read-out: IC50 [M] (ProliFiler-140)",1.1e-07 M and 1.15e-07 M
same,IC50,"Caki-1 (Kidney), read-out: IC50 [M] (ProliFiler-140)",3.29e-07 M and 3.3e-07 M
same,IC50,"Caki-2 (Kidney), read-out: IC50 [M] (ProliFiler-140)",1.51e-06 M and 1.5e-06 M
same,IC50,"Calu-6 (Lung), read-out: IC50 [M] (ProliFiler-140)",3.42e-07 M and 3.4e-07 M
same,IC50,"Colo 205 (Colon), read-out: IC50 [M] (ProliFiler-140)",7.6e-07 M and 7.61e-07 M
same,IC50,"DLD-1 (Colon), read-out: IC50 [M] (ProliFiler-140)",7.91e-07 M and 7.9e-07 M
same,IC50,"DU-145 (Prostate), read-out: IC50 [M] (ProliFiler-140)",1.8e-07 M and 1.83e-07 M
same,IC50,"DV90 (Lung), read-out: IC50 [M] (ProliFiler-140)",9e-08 M and 9.04e-08 M
same,IC50,"Detroit562 (Head/Neck), read-out: IC50 [M] (ProliFiler-140)",3.15e-07 M and 3.2e-07 M
same,IC50,"EFM-19 (Breast), read-out: IC50 [M] (ProliFiler-140)",9.6e-07 M and 9.62e-07 M
same,IC50,"EFM-192A (Breast), read-out: IC50 [M] (ProliFiler-140)",1.8e-06 M and 1.78e-06 M
same,IC50,"EFO-27 (Ovary), read-out: IC50 [M] (ProliFiler-140)",9e-07 M
same,IC50,"EPLC-272H (Lung), read-out: IC50 [M] (ProliFiler-140)",5.08e-07 M and 5.1e-07 M
same,IC50,"H4 (Brain), read-out: IC50 [M] (ProliFiler-140)",8.08e-08 M and 8.1e-08 M
same,IC50,"H460 (Lung), read-out: IC50 [M] (ProliFiler-140)",5.1e-08 M and 5.12e-08 M
same,IC50,"H1299 (Lung), read-out: IC50 [M] (ProliFiler-140)",7.27e-07 M and 7.3e-07 M
same,IC50,"H2228 (Lung), read-out: IC50 [M] (ProliFiler-140)",3.99e-07 M and 4e-07 M
same,IC50,"HCC38 (Breast), read-out: IC50 [M] (ProliFiler-140)",1.65e-07 M and 1.7e-07 M
same,IC50,"HCC202 (Breast), read-out: IC50 [M] (ProliFiler-140)",9e-07 M and 8.97e-07 M
same,IC50,"HCC827 (Lung), read-out: IC50 [M] (ProliFiler-140)",1.4e-06 M and 1.38e-06 M
same,IC50,"HCC 1569 (Breast), read-out: IC50 [M] (ProliFiler-140)",9.9e-07 M and 9.93e-07 M
same,IC50,"HCT116 (Colon), read-out: IC50 [M] (ProliFiler-140)",4.41e-07 M and 4.4e-07 M
same,IC50,"HCT116, read-out: IC50",4.4e-07 M
same,IC50,"HCT-15 (Colon), read-out: IC50 [M] (ProliFiler-140)",5.46e-07 M and 5.5e-07 M
same,IC50,"HCT-15, read-out: IC50",5.5e-07 M
same,IC50,"HEC-1-A (Endometrium), read-out: IC50 [M] (ProliFiler-140)",1.8e-06 M and 1.84e-06 M
same,IC50,"HEC-1-B (Endometrium), read-out: IC50 [M] (ProliFiler-140)",3.3e-06 M and 3.29e-06 M
same,IC50,"HL-60 (Blood), read-out: IC50 [M] (ProliFiler-140)",1e-07 M and 1.01e-07 M
same,IC50,"HL-60, read-out: IC50",1e-07 M
same,IC50,"HT-29 (Colon), read-out: IC50 [M] (ProliFiler-140)",1e-06 M and 9.98e-07 M
same,IC50,"HT-29, read-out: IC50",1e-06 M
same,IC50,"HT-1080 (Fibrosarcoma), read-out: IC50 [M] (ProliFiler-140)",3.2e-07 M
same,IC50,"Hep3B2.1-7 (Liver), read-out: IC50 [M] (ProliFiler-140)",1.3e-06 M and 1.34e-06 M
same,IC50,"Hs 746T (Stomach), read-out: IC50 [M] (ProliFiler-140)",9.9e-07 M and 9.89e-07 M
same,IC50,"HuH7 (Liver), read-out: IC50 [M] (ProliFiler-140)",6.47e-07 M and 6.5e-07 M
same,IC50,"Hutu 80 (Duodenum), read-out: IC50 [M] (ProliFiler-140)",5.37e-08 M and 5.4e-08 M
same,IC50,"Ishikawa (Endometrium), read-out: IC50 [M] (ProliFiler-140)",2.6e-08 M and 2.61e-08 M
same,IC50,"J82 (Bladder), read-out: IC50 [M] (ProliFiler-140)",7.2e-07 M
same,IC50,"JIMT-1 (Breast), read-out: IC50 [M] (ProliFiler-140)",1.6e-06 M
same,IC50,"JVM-3 (Blood), read-out: IC50 [M] (ProliFiler-140)",3.14e-08 M and 3.1e-08 M
same,IC50,"Jurkat (Blood), read-out: IC50 [M] (ProliFiler-140)",9.37e-08 M and 9.4e-08 M
same,IC50,"K562 (Blood), read-out: IC50 [M] (ProliFiler-140)",1.1e-06 M and 1.11e-06 M
same,IC50,"KARPAS 299 (Blood), read-out: IC50 [M] (ProliFiler-140)",7.07e-07 M and 7.1e-07 M
same,IC50,"KG-1 (Blood), read-out: IC50 [M] (ProliFiler-140)",6.22e-07 M and 6.2e-07 M
same,IC50,"KG-1 a (Blood), read-out: IC50 [M] (ProliFiler-140)",5.5e-07 M
same,IC50,"KMS-12-BM (Blood), read-out: IC50 [M] (ProliFiler-140)",3.43e-07 M and 3.4e-07 M
same,IC50,"Kato III (Stomach), read-out: IC50 [M] (ProliFiler-140)",1.6e-06 M and 1.62e-06 M
same,IC50,"LN229 (Brain), read-out: IC50 [M] (ProliFiler-140)",7.23e-07 M and 7.2e-07 M
same,IC50,"LOU-NH91 (Lung), read-out: IC50 [M] (ProliFiler-140)",3.1e-07 M and 3.07e-07 M
same,IC50,"LOVO (Colon), read-out: IC50 [M] (ProliFiler-140)",2.22e-07 M and 2.2e-07 M
same,IC50,"LP-1 (Blood), read-out: IC50 [M] (ProliFiler-140)",7.2e-07 M and 7.16e-07 M
same,IC50,"LnCap (Prostate), read-out: IC50 [M] (ProliFiler-140)",8.9e-07 M and 8.94e-07 M
same,IC50,"M07e (Blood), read-out: IC50 [M] (ProliFiler-140)",1.38e-07 M and 1.4e-07 M
same,IC50,"MCAS (Ovary), read-out: IC50 [M] (ProliFiler-140)",8.2e-07 M and 8.18e-07 M
same,IC50,"MCF-7 (Breast), read-out: IC50 [M] (ProliFiler-140)",2.1e-07 M and 2.15e-07 M
same,IC50,"MDA MB 231 (Breast), read-out: IC50 [M] (ProliFiler-140)",7.4e-07 M
same,IC50,"MDA MB 435 (Skin), read-out: IC50 [M] (ProliFiler-140)",1.1e-06 M and 1.08e-06 M
same,IC50,"MDA-MB-468 (Breast), read-out: IC50 [M] (ProliFiler-140)",1.5e-07 M and 1.48e-07 M
